Target: T1, JAK2 (JH1domain-catalytic, Y1007F,Y1008F) kinase (Homo sapiens, UniProt O60674, Y1007F/Y1008F)
T1 construct: JAK2 (JH1domain-catalytic, Y1007F,Y1008F) kinase was expressed as N-terminal fusion; made in house; host or cells: transiently transfected HEK293 cells
Assay: JAK2 JH1 Domain Binding Assay
Conditions: qPCR readout

T1 sequence (O60674 849-1124 Y1007F/Y1008F limits assumed): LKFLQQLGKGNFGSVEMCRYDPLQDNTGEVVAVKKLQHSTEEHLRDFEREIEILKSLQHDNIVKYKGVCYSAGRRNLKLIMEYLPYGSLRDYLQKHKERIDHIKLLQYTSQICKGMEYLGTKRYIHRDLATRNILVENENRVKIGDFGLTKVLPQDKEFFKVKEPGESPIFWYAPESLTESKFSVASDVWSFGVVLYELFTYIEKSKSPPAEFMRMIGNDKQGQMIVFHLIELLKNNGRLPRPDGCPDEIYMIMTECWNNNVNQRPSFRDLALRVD

| SMILES | Kd [µM] |
| --- | --- |
| COc1c(Oc2cnn3ccccc23)cnc2nc(Nc3cc(C4CC4)cn([C@@H]4CC[C@H]4O)c3=O)n(C)c12 (single isomer, unassigned) [Example I-122-a] | < 0.01 |
| COc1c(Oc2cnn3ccccc23)cnc2nc(Nc3cc(C4CC4)cn([C@H]4CC[C@@H]4O)c3=O)n(C)c12 (single isomer, unassigned) [Example I-122-b] | < 0.01 |
| COc1c(Oc2cnn3ccccc23)cnc2nc(Nc3cc(C4CC4)cn([C@@H]4CC[C@@H]4O)c3=O)n(C)c12 (single isomer, unassigned) [Example I-131-a] | < 0.01 |
| COc1c(Oc2cnn3ccccc23)cnc2nc(Nc3cc(C4CC4)cn([C@H]4CC[C@H]4O)c3=O)n(C)c12 (single isomer, unassigned) [Example I-131-b] | 0.01 to 0.05 |
| Cn1cc(C2CC2)cc(Nc2nc3ncc(Oc4cnn5ccnc(O[C@@H]6CC[C@H]6O)c45)c(Cl)c3n2C)c1=O (single isomer, unassigned) [Example I-133-a] | < 0.01 |
| Cn1cc(C2CC2)cc(Nc2nc3ncc(Oc4cnn5ccnc(O[C@H]6CC[C@@H]6O)c45)c(Cl)c3n2C)c1=O (single isomer, unassigned) [Example I-133-b] | < 0.01 |
| Cn1cc(C(F)(F)F)cc(Nc2nc3ncc(Oc4cnn5ccnc(O[C@@H]6CC[C@H]6O)c45)c(Cl)c3n2C)c1=O (single isomer, unassigned) [Example I-139-a] | < 0.01 |
| Cn1cc(C(F)(F)F)cc(Nc2nc3ncc(Oc4cnn5ccnc(O[C@H]6CC[C@@H]6O)c45)c(Cl)c3n2C)c1=O (single isomer, unassigned) [Example I-139-b] | < 0.01 |
| Cn1c(Nc2cc(C(C)(C)C)n([C@H]3CC[C@H]3O)n2)nc2ncc(Oc3cnn4ccncc34)c(Cl)c21 (single isomer, unassigned) [Example I-147-a] | < 0.01 |
| Cn1c(Nc2cc(C(C)(C)C)n([C@@H]3CC[C@@H]3O)n2)nc2ncc(Oc3cnn4ccncc34)c(Cl)c21 (single isomer, unassigned) [Example I-147-b] | < 0.01 |
| Cn1c(Nc2cc(C3CC3)nn([C@@H]3CCCOC3)c2=O)nc2ncc(Oc3cnn4ccccc34)c(Cl)c21 (single isomer, unassigned) [Example I-148-a] | < 0.01 |
| Cn1c(Nc2cc(C3CC3)nn([C@H]3CCCOC3)c2=O)nc2ncc(Oc3cnn4ccccc34)c(Cl)c21 (single isomer, unassigned) [Example I-148-b] | 0.01 to 0.05 |
| Cn1c(Nc2cc(C(C)(C)C)n([C@H]3COC[C@@H]3O)n2)nc2ncc(Oc3cnn4ccncc34)c(C#N)c21 (single isomer, unassigned) [Example I-150-a] | 0.01 to 0.05 |
| Cn1c(Nc2cc(C(C)(C)C)n([C@@H]3COC[C@H]3O)n2)nc2ncc(Oc3cnn4ccncc34)c(C#N)c21 (single isomer, unassigned) [Example I-150-b] | 0.01 to 0.05 |
| CNc1nccn2ncc(Oc3cnc4nc(Nc5cc(C(F)(F)F)cn([C@H]6CCCOC6)c5=O)n(C)c4c3Cl)c12 (single isomer, unassigned) [Example I-245-a] | < 0.01 |
| CNc1nccn2ncc(Oc3cnc4nc(Nc5cc(C(F)(F)F)cn([C@@H]6CCCOC6)c5=O)n(C)c4c3Cl)c12 (single isomer, unassigned) [Example I-245-b] | 0.01 to 0.05 |
| CNc1nccn2ncc(Oc3cnc4nc(Nc5cc(C(F)(F)F)cn([C@H]6CCOC6)c5=O)n(C)c4c3Cl)c12 (single isomer, unassigned) [Example I-262-a] | < 0.01 |
| CNc1nccn2ncc(Oc3cnc4nc(Nc5cc(C(F)(F)F)cn([C@@H]6CCOC6)c5=O)n(C)c4c3Cl)c12 (single isomer, unassigned) [Example I-262-b] | < 0.01 |
| CN1C[C@@H](F)[C@H](n2nc(Nc3nc4ncc(Oc5cnn6ccncc56)c(Cl)c4n3C)cc2C(C)(C)C)C1 (single isomer, unassigned) [Example I-267-a] | 0.01 to 0.05 |
| CN1C[C@H](F)[C@@H](n2nc(Nc3nc4ncc(Oc5cnn6ccncc56)c(Cl)c4n3C)cc2C(C)(C)C)C1 (single isomer, unassigned) [Example I-267-b] | 0.05 to 1 |
| CNc1nccn2ncc(Oc3cnc4nc(Nc5cc(C6CCCN6C)cc(C(F)(F)F)c5)n(C)c4c3Cl)c12 (single isomer, unassigned) [Example I-269-a] | 0.01 to 0.05 |
| CNc1nccn2ncc(Oc3cnc4nc(Nc5cc(C6CCCN6C)cc(C(F)(F)F)c5)n(C)c4c3Cl)c12 (single isomer, unassigned) [Example I-269-b] | 0.01 to 0.05 |

| SMILES | Kd [µM] |
| --- | --- |
| CN1CCC[C@@H]1c1cc(Nc2nc3ncc(Oc4cnn5ccncc45)c(Cl)c3n2C)cc(C(F)(F)F)c1 (single isomer, unassigned) [Example I-270-a] | < 0.01 |
| CN1CCC[C@H]1c1cc(Nc2nc3ncc(Oc4cnn5ccncc45)c(Cl)c3n2C)cc(C(F)(F)F)c1 (single isomer, unassigned) [Example I-270-b] | < 0.01 |
| CNc1nccn2ncc(Oc3cnc4nc(Nc5cc(C(F)(F)F)n([C@H]6COC[C@@H]6O)n5)n(C)c4c3Cl)c12 (single isomer, unassigned) [Example I-279-a] | < 0.01 |
| CNc1nccn2ncc(Oc3cnc4nc(Nc5cc(C(F)(F)F)n([C@@H]6COC[C@H]6O)n5)n(C)c4c3Cl)c12 (single isomer, unassigned) [Example I-279-b] | < 0.01 |
| CNc1nccn2ncc(Oc3cnc4nc(Nc5cc([C@@H]6CCOC6)nc(C(F)(F)F)c5)n(C)c4c3Cl)c12 (single isomer, unassigned) [Example I-280-a] | 0.01 to 0.05 |
| CNc1nccn2ncc(Oc3cnc4nc(Nc5cc([C@H]6CCOC6)nc(C(F)(F)F)c5)n(C)c4c3Cl)c12 (single isomer, unassigned) [Example I-280-b] | 0.01 to 0.05 |
| CNc1cn2ncc(Oc3cnc4nc(Nc5cc(C(F)(F)F)cn([C@H]6CCOC6)c5=O)n(C)c4c3Cl)c2cn1 (single isomer, unassigned) [Example I-305] | < 0.01 |
| CNc1cn2ncc(Oc3cnc4nc(Nc5cc(C(F)(F)F)cn([C@@H]6CCOC6)c5=O)n(C)c4c3Cl)c2cn1 (single isomer, unassigned) [Example I-306] | 0.01 to 0.05 |
| CN1CCCC1c1ccc(Nc2nc3ncc(Oc4cnn5ccncc45)c(Cl)c3n2C)cc1C(F)(F)F (single isomer, unassigned) [Example I-343] | < 0.01 |
| CN1CCC[C@@H]1c1ccc(Nc2nc3ncc(Oc4cnn5ccncc45)c(Cl)c3n2C)cc1C(F)(F)F (single isomer, unassigned) [Example I-344] | < 0.01 |
| CN1CCCCC1COc1cc(Nc2nc3ncc(Oc4cnn5ccncc45)c(Cl)c3n2C)cc(C(F)(F)F)c1 (single isomer, unassigned) [Example I-350-a] | < 0.01 |
| CN1CCCCC1COc1cc(Nc2nc3ncc(Oc4cnn5ccncc45)c(Cl)c3n2C)cc(C(F)(F)F)c1 (single isomer, unassigned) [Example I-350-b] | < 0.01 |
| CNc1cn2ncc(Oc3cnc4nc(Nc5cc(C(F)(F)F)cn([C@H]6CCCOC6)c5=O)n(C)c4c3Cl)c2cn1 (single isomer, unassigned) [Example I-352-a] | 0.01 to 0.05 |
| CNc1cn2ncc(Oc3cnc4nc(Nc5cc(C(F)(F)F)cn([C@@H]6CCCOC6)c5=O)n(C)c4c3Cl)c2cn1 (single isomer, unassigned) [Example I-352-b] | 0.01 to 0.05 |
| CNc1cn2ncc(Oc3cnc4nc(Nc5cc([C@H]6CCCN6C)cc(C(F)(F)F)c5)n(C)c4c3Cl)c2cn1 (single isomer, unassigned) [Example I-359-a] | 0.05 to 1 |
| CNc1cn2ncc(Oc3cnc4nc(Nc5cc([C@@H]6CCCN6C)cc(C(F)(F)F)c5)n(C)c4c3Cl)c2cn1 (single isomer, unassigned) [Example I-359-b] | 0.05 to 1 |
| COCCN1CCC(n2nc(Nc3nc4ncc(Oc5cnn6ccncc56)c(C(F)F)c4n3C)cc2C(C)(C)C)C1 (stereo in doubt) [Example I-52, (S)—N-(5-(tert-butyl)-1-(1-(2-methoxyethyl)pyrrolidin-3-yl)-1H-pyrazol-3-yl)-7-(difluoromethyl)-1-methyl-6-(pyrazolo[1,5-a]pyrazin-3-yloxy)-1H-imidazo[4,5-b]pyridin-2-amine] | 0.01 to 0.05 |
| Cn1c(Nc2cc(C(F)(F)F)cn([C@H]3C[C@H](O)C3)c2=O)nc2ncc(Oc3cnn4ccncc34)c(Cl)c21 (stereo in doubt) [Example I-89, trans-3-((7-chloro-1-methyl-6-(pyrazolo[1,5-a]pyrazin-3-yloxy)-1H-imidazo[4,5-b]pyridin-2-yl)amino)-1-(3-hydroxycyclobutyl)-5-(trifluoromethyl)pyridin-2(1H)-one] | < 0.01 |
| Cn1c(Nc2ccc(CN3CCC(O)C3)c(C(F)(F)F)c2)nc2ncc(Oc3cnn4ccncc34)c(Cl)c21 (stereo in doubt) [Example I-185, (S)-1-(4-((7-chloro-1-methyl-6-(pyrazolo[1,5-a]pyrazin-3-yloxy)-1H-imidazo[4,5-b]pyridin-2-yl)amino)-2-(trifluoromethyl)benzyl)pyrrolidin-3-ol] | < 0.01 |
| Cn1c(Nc2ccc(CN3CCC(O)C3)c(C(F)(F)F)c2)nc2ncc(Oc3cnn4ccncc34)c(Cl)c21 (stereo in doubt) [Example I-186, (R)-1-(4-((7-chloro-1-methyl-6-(pyrazolo[1,5-a]pyrazin-3-yloxy)-1H-imidazo[4,5-b]pyridin-2-yl)amino)-2-(trifluoromethyl)benzyl)pyrrolidin-3-ol] | < 0.01 |
| Cn1c(Nc2cc(N3CCC(O)C3)cc(C(F)(F)F)c2)nc2ncc(Oc3cnn4ccncc34)c(Cl)c21 (stereo in doubt) [Example I-239, (S)-1-(3-((7-chloro-1-methyl-6-(pyrazolo[1,5-a]pyrazin-3-yloxy)-1H-imidazo[4,5-b]pyridin-2-yl)amino)-5-(trifluoromethyl)phenyl)pyrrolidin-3-ol] | < 0.01 |
| CN(C)C1CCN(Cc2cc(Nc3nc4ncc(Oc5cnn6ccncc56)c(Cl)c4n3C)cc(C(F)(F)F)c2)C1 (stereo in doubt) [Example I-272, (R)-7-chloro-N-(3-((3-(dimethylamino)pyrrolidin-1-yl)methyl)-5-(trifluoromethyl)phenyl)-1-methyl-6-(pyrazolo[1,5-a]pyrazin-3-yloxy)-1H-imidazo[4,5-b]pyridin-2-amine] | < 0.01 |

Source: US12043632B2, “6-heteroaryloxy benzimidazoles and azabenzimidazoles as JAK2 inhibitors” (Ajax Therapeutics, Inc., priority 2020, dated 2024)
